Consider 2 compounds from patent publication EP2042178A1, “Ocular formulations comprising 5-chlorouracil and use thereof” (INSTITUT NATIONAL DE LA SANTE ET DE LA RECHERCHE MEDICALE …, priority 2007, dated 2009).

The test system of series [1] is human conjunctival cell line (Wong-Kilbourne derivative of Chang conjunctiva). The series is described as follows: Hoechst 33342 test (chromatin condensation, with propidium iodide). The class given is cell-based. The conditions noted are these: for chromatin condensation compared to control cells: up to 1 µg/ml; for chromatin condensation: increasing concentrations >1 µg/ml. As for the experimental part:
(§1) Normal culture development was assessed daily by phase-contrast microscopy. Confluent cultures were removed by gentle trypsin incubation, and cells were counted. For cytotoxicity experiments, cells were seeded into 96-well culture plates (18'000 cells per well; Nunc, Roskild, Denmark) until sub-confluence (culture surface covering nearly 70%) and were then exposed to the different formulations. Experiments were performed by microplate cold light fluorometry (Fluorolite 1000 Dynex; Issy-les-Moulineaux, France), as previously validated (Debbasch et al., 2001, Invest. Ophthalmol. Vis. Sci., 42, 642-652). According to the recommendations of the European Center for the Validation of Alternative Methods (ECVAM) and to previously validated methods in the Chang cell line, two cellular markers were evaluated: cellular viability and chromatin condensation. Cellular viability was evaluated with a neutral red (Fluka, Ronkonkoma, NY) test with fluorometric detection (excitation: 535 nm; emission: 600 nm). Hoechst 33342 (Molecular Probes, Eugene, OR) is an intercalating dye, which allows the determination of the total chromatin quantity variations and the degree of chromatin condensation. […] was used on cells at a final concentration of 10 µg/ml (excitation: 360 nm; emission: 450 nm). 0.5 mg/ml propidium iodide (Roche Diagnostics Corp., Meylan, France) was added to the Hoechst solution, to control necrotic cells, as previously validated. The supravital uptake of Hoechst 33342 combined with extrusion of propidium iodide was used as an assay for apoptosis as described in Belloc et al., 1994, Cytometry, 17, 59-65. […] It is defined by a series of cellular changes: (a) the cell shrinks, looses contact with neighbouring cells or surrounding matrix and starts to display intracellular proteins on its surface; (b) the chromatin in the nucleus condenses and the DNA is cleaved into small fragments; (c) the plasma membrane then begins to show a bubbled appearance and small membrane bound bodies break off containing intracellular material which can include nuclear matter and cellular organelles. These fragments are known as "apoptotic bodies" which are quickly removed by phagocytes or by neighbouring cells.
The value of IC50 (concentration inhibiting 50% of cell population) was used to compare 5-FU and 5-CU cytotoxicities. Dulbecco's minimum essential medium was used as a control, and was used to dilute the tested molecules.

Series [2] shares this test system. Put plainly: Neutral red test (cellular viability). The class given is cell-based. As to conditions: for cell viability decrease: concentrations up to 10 µg/ml; for IC50: Homo sapiens, 72 hours of exposure. As for the experimental part: as §1
In these experiments, cell viability and chromatin condensation were evaluated after a 24 and 72 hour-incubation, with […] of 5-chlorouracil as compared with the same concentrations of 5-fluorouracil. The value of IC50 (concentration inhibiting 50% of cell population) was used to compare 5-FU and 5-CU cytotoxicities. Dulbecco's minimum essential medium was used as a control, and was used to dilute the tested molecules.

The subject of series [3] is rabbit Tenon's capsule fibroblasts. As to conditions: for cell death: sub-confluent fibroblasts, 24 hours. As for the experimental part: Cells were seeded at a density of 2 x 10^4 cells / well until reaching subconfluency and were then treated with 5-chlorouracil (5-CU) or with 5-fluorouracil (5-FU) at different concentrations (0, 0.5, 5, 50, 500, 1'000 or 5'000 µg/ml) for 24 hours.
MTT (Sigma) (1mg/ml in PBS) was added to the wells and plates were incubated at 37°C for 1 hour. Isopropanol was then added and mixed thoroughly to dissolve the dark blue crystals and the plates were rapidly read on a BIO-RAD Model 450 Microplate reader, using a test wavelength of 570 nm and a reference wavelength of 630 nm.

Series [4] in a line: In vitro rate of release from POE IV formulation. The class given is physicochemical. As for the experimental part:
Formulations were prepared under a laminar airflow hood. […] The viscous mixture was conditioned in a 1.0 ml syringe, each sample being 200µl (240 mg). In a preliminary investigation, the in vitro rate of release of 5-CU was determined according to the procedure described by Merkli et al., 1998, J. Control. […] 5-FU in vitro rate of release from POE IV has also previously been described by Heller et al, 2005, Adv. Drug Delivery Rev., 57(14)2053-62.

A further series concerns rabbit fibroblasts. The series is described as follows: Trypan blue exclusion test / cell counting, fibroblast proliferation. As to conditions: for concentration at which inhibition of cell proliferation is significant: 24 hours exposure; for inhibition at 10 µg/mL / inhibition at 20 µg/mL / inhibition at 100 µg/mL: Oryctolagus cuniculus, Fibroblast, 24 h, read-out: inhibition of cell proliferation.

For series [5] the following is noted: same conditions, Heller et al., 2005; cited from earlier work.
For series [6] the following is noted: sub-conjunctival injection, cited from earlier work.
Where [7] appears, read: Hoechst and neutral red results combined, 72 hours of exposure.
Setting [8] is: Hoechst test, high concentrations.

In brackets after ≈: the same amount, converted by molar mass. Read-outs that look alike come from different tables or passages of the source. Where only a bound is given, the exact number is not on record here.

As usually defined, the IC50 is the concentration needed to halve the response being measured. A lower IC50 goes with greater potency in that assay. Consider `O=c1[nH]cc(Cl)c(=O)[nH]1` [5-CU, 5-chloro-1H-pyrimidine-2,4-dione], for which the “Hoechst fluorescence compared with identical 5-FU concentrations” value in series [1] (24 hours, increasing concentrations up to 1'000 µg/ml, P=0.0079) is recorded as “very significant increase”. For the same compound, the “chromatin condensation compared to control cells” value in series [1] (24 hours) is “no significant difference”. In series [1] (setting [7]), the “type of cell death induced” value was “apoptotic cell death”. In addition, the “type of cell death induced” value in series [1] (setting [8]) is listed as “apoptotic cell death”. This compound had a cell death in series [2] (24 hour-incubation, 1'000 µg/ml) of 35%. For the same compound, the cell viability decrease entry in series [2] (24 hour-incubation) was “about 20%”. The compound also registered a cell death in series [2] (72 hour-incubation, 4 mg/ml (highest concentration)) of 75%. In series [2], this compound displayed an IC50 of 2500 µg/mL (≈ 17.1 mM). Besides, the “times less toxic to non-proliferating cells than 5-FU” value in series [3] (rabbit, 24 h) was 1'000 times. Besides, the cell death in series [3] (5'000 µg/ml) is 33%. The daily release rate entry in series [4] (1% 5-CU from POE IV formulation, for up to forty days) was “approximately 8 µg/day”. In addition, the “in vitro rate of release” value in series [4] (from POE IV, 1% wt/wt, over a period of up to 40 days, preliminary investigation) was 8 micrograms per day. For the same compound, in the series with rabbit fibroblasts, the “concentration at which inhibition of cell proliferation is significant” value was not below 10 µg/mL, the inhibition at 10 µg/mL was found to be 23%, the inhibition at 20 µg/mL came to 23% and the inhibition at 100 µg/mL was 25%.

Consider `O=c1[nH]cc(F)c(=O)[nH]1` [5-FU, 5-fluorouracil], for which the chromatin condensation entry is on record as “dose-dependant significant decrease” in series [1] (24 hours, P=0.0079) and “dose-dependant significant decrease” in series [1] (72 hours, P=0.02). In series [1] (24 hours), the “chromatin condensation compared to control cells” value is listed as “no significant difference”. Moreover, the entries for the “type of cell death induced” value in series [1] (setting [7]) and in series [1] (setting [8]) were “apopto-necrotic cell death” and “necrotic cell death”, respectively. The cell death in series [2] (24 hour-incubation, 100 µg/ml) was 55%; in series [3] (5 µg/ml), 39.1%; in series [3] (50 µg/ml), 51%. Also, the cell viability decrease result in series [2] (24 hour-incubation) is reported as “about 20%”. Besides, the cellular viability entry in series [2] (72 hour-incubation, 1 µg/ml) is reported as “significantly decreased”. In series [2], this compound registered an IC50 of 7 µg/mL (≈ 0.0538 mM). Moreover, the “in vitro rate of release from POE IV” value in series [5] was 100 µg per day. The corneal levels in series [6] (at 1 hour) is given as 20 µg/g; in series [6] (at 24 hours) it was 5 µg/g. Also, the “time for which ID50 levels are maintained” value in series [6] (at the injection site and 180° from it) is reported as “up to 24 hours”. The “concentration at which inhibition of cell proliferation is significant” value with rabbit fibroblasts was not below 10 µg/mL. For the same compound, the inhibition at 10 µg/mL in the series on rabbit fibroblasts stood at 28%. For the same compound, the inhibition at 20 µg/mL in the series with rabbit fibroblasts was 40%. In addition, the inhibition at 100 µg/mL in the series on rabbit fibroblasts was 43%.
